In ChEMBL document CHEMBL5046305, “A Chemical Strategy toward Novel Brain-Penetrant EZH2 Inhibitors” (ACS Med Chem Lett, 2022):

Tests used:
[1] = Metabolic stability in human liver microsomes at 1 uM in presence of NADPH generating system by LC/MS/MS analysis; type: ADME, Microsome; conditions: read-out: Stability
[2] = molecular target: T1, Histone-lysine N-methyltransferase EZH2 (Homo sapiens, UniProt Q15910); assay: Inhibition of EZH2 (unknown origin) using 3H-SAM as substrate incubated for 1 hour by filter binding method
[3] = Metabolic stability in mouse liver microsomes at 1 uM in presence of NADPH generating system by LC/MS/MS analysis; type: ADME, Microsome; conditions: read-out: Stability
[4] = system: MDR1; assay: Efflux ratio of apparent permeability across basolateral to apical side over apical to basolateral side in MDCK-MDR1 cells at 1 to 10 uM measured after 1 hrs by LC/MS/MS analysis; type: ADME, cell-based, Canis lupus familiaris; conditions: dog, dose 1-10 µM
[5] = Apparent permeability across apical to basolateral side in MDCK-MDR1 cells at 1 to 10 uM measured after 1 hrs by LC/MS/MS analysis; type: ADME, cell-based, Canis lupus familiaris; conditions: dog, dose 1-10 µM
[6] = molecular target: T1, Histone-lysine N-methyltransferase EZH2; assay: Inhibition of EZH2 in HEK293T cells assessed as H3K27me3 levels incubated for 48 hrs by flow cytometry; type: cell-based
[7] = system: KARPAS-422; assay: Antiproliferative activity against human KARPAS-422 cells assessed as cell growth inhibition incubated for 72 hrs followed by compound dilution in growth medium and measured after 96 hrs by Alamar blue assay; type: functional, cell-based
[8] = Ratio of unbound drug concentration in brain to blood in Sprague-Dawley rat at 1 mg/kg, iv measured after 15 mins by LC/MS/MS analysis; type: ADME, organism-based; conditions: read-out: K(p,uu,brain)

T1 sequence (Q15910 whole entry): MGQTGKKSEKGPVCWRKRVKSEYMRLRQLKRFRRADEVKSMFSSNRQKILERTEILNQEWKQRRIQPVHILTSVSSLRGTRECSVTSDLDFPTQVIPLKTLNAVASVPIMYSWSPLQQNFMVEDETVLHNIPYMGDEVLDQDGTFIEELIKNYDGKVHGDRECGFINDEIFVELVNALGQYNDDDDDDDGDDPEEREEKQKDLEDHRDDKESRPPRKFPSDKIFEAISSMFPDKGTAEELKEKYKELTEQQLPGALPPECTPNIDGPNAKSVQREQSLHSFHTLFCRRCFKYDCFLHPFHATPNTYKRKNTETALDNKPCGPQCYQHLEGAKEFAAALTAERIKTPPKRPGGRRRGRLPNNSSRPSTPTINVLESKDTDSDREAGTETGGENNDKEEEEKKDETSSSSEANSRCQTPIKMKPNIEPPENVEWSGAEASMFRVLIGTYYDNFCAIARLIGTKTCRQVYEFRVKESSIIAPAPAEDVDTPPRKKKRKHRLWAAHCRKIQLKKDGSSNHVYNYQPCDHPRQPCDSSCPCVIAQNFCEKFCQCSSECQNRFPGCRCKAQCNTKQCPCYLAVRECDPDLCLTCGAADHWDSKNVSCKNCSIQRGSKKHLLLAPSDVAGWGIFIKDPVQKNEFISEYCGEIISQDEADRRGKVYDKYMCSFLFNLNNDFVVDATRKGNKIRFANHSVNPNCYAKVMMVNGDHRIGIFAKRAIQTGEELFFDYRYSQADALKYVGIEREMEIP

SMILES | microsomal CLint at 1 µM [1] | IC50 [2] | microsomal CLint at 1 µM [3] | efflux ratio at 1 h, up to 10 µM [4] | Papp A→B at 1 h, up to 10 µM [5] | IC50 [6] | IC50 [7] | Kp uu at 0.25 h [8]
CCc1cc(C)[nH]c(=O)c1CN1CCN(C)c2c(Cl)cc(-c3c(C)noc3C)c(Cl)c2C1=O | – | 1.8 nM | – | > 170 | < 0.1 ×10⁻⁶ cm/s | – | – | –
COc1cc(C)[nH]c(=O)c1CN1CCN(C)c2c(Cl)cc(-c3ccc(CN4CCOCC4)cc3)c(Cl)c2C1=O | 41 µL/min/mg | 220 nM | 41 µL/min/mg | – | – | – | – | –
CCc1cc(C)n(C)c(=O)c1CN1CCc2c(Cl)cc(-c3c(C)noc3C)c(Cl)c2C1=O | > 768 µL/min/mg | 82 nM | > 768 µL/min/mg | 0.72 | 11 ×10⁻⁶ cm/s | – | – | –
COc1cc(C)[nH]c(=O)c1CN1CCN(C)c2ccc(-c3c(C)noc3C)c(Cl)c2C1=O | 9 µL/min/mg | 2.9 nM | – | – | < 0.1 ×10⁻⁶ cm/s | – | – | –
CSc1cc(C)n(C)c(=O)c1CN1CCc2c(Cl)cc(-c3c(C)noc3C)c(Cl)c2C1=O | 235 µL/min/mg | 1.3 nM | 796 µL/min/mg | 110 | 0.3 ×10⁻⁶ cm/s | – | 632 nM | –
Cc1cc(C)n(C)c(=O)c1CN1CCc2c(Cl)cc(-c3c(C)noc3C)c(Cl)c2C1=O | 449 µL/min/mg | – | > 768 µL/min/mg | – | 10.5 ×10⁻⁶ cm/s | – | 4680 nM | 0.29
COc1cc(C)n(C)c(=O)c1CN1CCc2c(Cl)cc(-c3c(C)noc3C)c(Cl)c2C1=O | 117 µL/min/mg | 11.6 nM | 656 µL/min/mg | 23 | 1 ×10⁻⁶ cm/s | – | 2950 nM | –
COc1cc(C)n(C)c(=O)c1CN1CCN(C)c2c(Cl)cc(-c3c(C)noc3C)c(Cl)c2C1=O | – | 541 nM | – | – | – | – | – | –
COc1cc(C)[nH]c(=O)c1CN1CCN(C)c2c(Cl)cc(-c3ccc(N4CCOCC4)cc3)c(Cl)c2C1=O | 7 µL/min/mg | 64.8 nM | 8 µL/min/mg | – | – | – | – | –
COc1cc(C)[nH]c(=O)c1CN1CCN(C)c2c(Cl)cc(C(O)C3CCOCC3)c(Cl)c2C1=O (stereo not given) | 34 µL/min/mg | 9.4 nM | 91 µL/min/mg | – | – | – | – | –
CCN(c1cc(Cl)c2c(c1Cl)C(=O)N(Cc1c(OC)cc(C)[nH]c1=O)CCN2C)C1CCOCC1 | 181 µL/min/mg | 1.9 nM | > 768 µL/min/mg | – | – | – | – | –
CSc1cc(C)n(C)c(=O)c1CN1CCN(C)c2c(Cl)cc(-c3c(C)noc3C)c(Cl)c2C1=O | – | 11.4 nM | – | 110 | 0.2 ×10⁻⁶ cm/s | – | 10400 nM | –
Cc1cc(C)c(CN2CCc3c(Cl)cc(-c4c(C)noc4C)c(Cl)c3C2=O)c(=O)[nH]1 | 210 µL/min/mg | 1 nM | 253 µL/min/mg | 4.8 | 3.7 ×10⁻⁶ cm/s | 16 nM | 122 nM | < 0.003
COc1cc(C)[nH]c(=O)c1CN1CCN(C)c2c(Cl)cc(-c3ccc(Cl)cc3F)c(Cl)c2C1=O | 97 µL/min/mg | 72.1 nM | 297 µL/min/mg | – | – | – | – | –
CSc1cc(C)n(C)c(=O)c1CN1CCNc2c(Cl)cc(-c3c(C)noc3C)c(Cl)c2C1=O | – | 2.1 nM | – | 220 | 0.2 ×10⁻⁶ cm/s | – | 1320 nM | –

More lines, now with the values ahead:

microsomal CLint at 1 µM [1] | IC50 [2] | microsomal CLint at 1 µM [3] | efflux ratio at 1 h, up to 10 µM [4] | Papp A→B at 1 h, up to 10 µM [5] | IC50 [6] | IC50 [7] | Kp uu at 0.25 h [8] | SMILES
206 µL/min/mg | 2 nM | 562 µL/min/mg | – | – | – | – | – | COc1cc(C)[nH]c(=O)c1CN1CCN(C)c2c(Cl)cc(C(C)C3CCOCC3)c(Cl)c2C1=O (stereo not given)
80 µL/min/mg | 0.87 nM | 112 µL/min/mg | > 49 | < 0.1 ×10⁻⁶ cm/s | 208 nM | 245 nM | – | COc1cc(C)[nH]c(=O)c1CN1CCN(C)c2c(Cl)cc(-c3c(C)noc3C)c(Cl)c2C1=O
29 µL/min/mg | 33.4 nM | > 768 µL/min/mg | – | – | – | – | – | COc1cc(C)[nH]c(=O)c1CN1CCN(C)c2c(Cl)cc(OC(C)C)c(Cl)c2C1=O
287 µL/min/mg | > 1000 nM | 592 µL/min/mg | 2.4 | 4.9 ×10⁻⁶ cm/s | – | – | – | Cc1noc(C)c1-c1cc(Cl)c2c(c1Cl)C(=O)N(Cc1c(C(F)(F)F)cc(C)n(C)c1=O)CC2
490 µL/min/mg | 302 nM | > 768 µL/min/mg | 1.5 | 5.2 ×10⁻⁶ cm/s | – | – | – | Cc1noc(C)c1-c1cc(Cl)c2c(c1Cl)C(=O)N(Cc1c(C3CC3)cc(C)n(C)c1=O)CC2
– | 33.4 nM | – | – | – | – | – | – | CCN1CCN(Cc2c(OC)cc(C)[nH]c2=O)C(=O)c2c(Cl)c(-c3c(C)noc3C)cc(Cl)c21
79 µL/min/mg | 0.35 nM | 123 µL/min/mg | > 51 | < 0.1 ×10⁻⁶ cm/s | 17 nM | 65 nM | – | COc1cc(C)[nH]c(=O)c1CN1CCNc2c(Cl)cc(-c3c(C)noc3C)c(Cl)c2C1=O
– | 0.9 nM | – | > 99 | < 0.1 ×10⁻⁶ cm/s | – | 125 nM | – | CSc1cc(C)[nH]c(=O)c1CN1CCN(C)c2c(Cl)cc(-c3c(C)noc3C)c(Cl)c2C1=O
